Measured values: publication PMC9775652, “Concomitant Administration of Red Ginseng Extract with Lactic Acid Bacteria Increases the Plasma Concentration of Deglycosylated Ginsenosides in Healthy Human Subjects” (Biomolecules, 2022)
“And” between values parts separate entries of the source, which are not always exact repeats. Equal entries are not always repeated. Where two headings read alike, the source gives them in different places.

Test: Pharmacokinetic study of ginsenosides in healthy humans after repeated oral RGE with or without LAB
Format: in vivo, human
Conditions: for Cmax / MRT / Tmax / AUC: male, in vivo, human plasma, mean ± SD, n = 5; for Cmax: read-out: Cmax; for MRT: read-out: MRT; for Tmax: read-out: Tmax; for AUC: AUC 0 to 24 h, read-out: AUC
Protocol: A single-sequence study consisting of two periods was conducted on five healthy male subjects (body weight > 50 kg and age > 19 years) for 29 days. During the first period of the study (RGE treatment group), three pouches of RGE (30 mL, 104.1 mg of total ginsenosides) were administered to 5 subjects once daily for 14 days. On the 14th day, the subjects were admitted to the Clinical Trial Center of KNUH at 7 AM and underwent the last RGE administration at approximately 8–9 AM. Blood samples (approximately 3 mL) were collected at 0, 4, 6, 8, 10, 12, 13, 14, and 24 h after the last dose. A saline-locked angiocatheter was placed on the forearm of each subject’s hand. After discarding 1 mL of blood derived from the catheter, 3 mL of blood was drawn into a vacutainer tube containing heparin and centrifuged at 3000× g for 10 min. The supernatant plasma samples were stored at −80 °C until ginsenoside analysis.
In the second half of the study (RGE + LAB treatment group), 3 pouches of RGE (30 mL, 104.1 mg of total ginsenosides) and 1 pouch of LAB (1 billion CFU/2 g) were co-administered once daily for 14 days. On the […], the subjects were admitted to the Clinical Trial Center of KNUH at 7 AM and received the last red ginseng dose at approximately 8–9 AM. Blood samples (approximately 3 mL) were withdrawn at 0, 4, 6, 8, 10, 12, 13, 14, and 24 h intervals after the last dose and centrifuged at 3000× g for 10 min; the supernatant plasma samples were stored at −80 °C.
Briefly, to analyze GRb1, GRb2, GRc, GRd, GRe, GRf, GRg1, GRg3, GF1, and GF2, 400 μL of an internal standard (IS; 0.05 ng/mL berberine in methanol) was added to 100 μL of plasma. The mixture was vortexed for 15 min and centrifuged at 16,000× g for 5 min. After centrifugation, 400 μL of the supernatant was evaporated using a speed-dry vacuum concentrator (Christ, Osterode am Harz, Germany). The residue was reconstituted using 200 μL of 70% methanol supplemented with 0.1% formic acid, and a 10 μL aliquot was injected into the LC-MS/MS system. Chromatographic separation was performed using a Polar RP column (150 × 2.0 mm, 4.0 μm particle size; Phenomenex, Torrance, CA, USA) using a mobile phase consisting of 0.1% formic acid in water (phase A) and 0.1% formic acid in methanol (phase B). The following elution gradient was used: 69% of phase B for 0–2.0 min, 69–85% of phase B for 2.0–4.0 min, and 85–69% of phase B for 6.0–6.5 min. The flow rate was 0.27 mL/min.
The mixture was vortexed for 10 min and centrifuged at 16,000× g for 5 min. After centrifugation, the samples were frozen at −80 °C for 4 h. The upper layer was transferred to a clean tube and evaporated. The residue was reconstituted using 200 μL of 80% methanol supplemented with 0.1% formic acid, and a 10 μL aliquot was injected into the LC-MS/MS system. Chromatographic separation was performed using a Luna C18 column (150 × 2.0 mm, 3.0 μm particle size; Phenomenex, Torrance, CA, USA) and using a mobile phase consisting of water containing 0.1% formic acid: methanol containing 0.1% formic acid = 8:92 (v/v) at a flow rate of 0.15 mL/min.
The quantification of ginsenosides was carried out using multiple reaction monitoring in positive ionization mode, as previously described.
Finally, pharmacokinetic parameters were calculated using non-compartmental methods (WinNonlin version 5.1; Pharsight Co., Certara, NJ, USA). Statistical analysis was performed by Student’s t-test to compare the two groups using IBM SPSS Statistics for Windows (version 25.0; IBM Corp., Armonk, NY, USA). Differences were considered significant at p < 0.05.

[1] = 104.1 mg total ginsenosides/day, RGE group, RGE oral 14 days

In the case of `CC(C)=CCC[C@](C)(O)[C@H]1CC[C@]2(C)[C@@H]1[C@H](O)C[C@@H]1[C@@]3(C)CC[C@H](O[C@@H]4O[C@H](CO)[C@@H](O)[C@H](O)[C@H]4O)C(C)(C)[C@@H]3CC[C@]12C` [GRh2, ginsenoside Rh2], the “Fold increase of plasma AUC after LAB supplementation” value (RGE + LAB group compared to RGE group, humans, 2 weeks) is reported as 2.1 fold and 2.7 fold, the “Change of AUC / pharmacokinetic parameters by RGE and LAB co-administration” value (RGE + LAB group versus RGE group, humans, result in words) is reported as “significantly increased” and the Cmax [1] is reported as 2.1 ± 0.8 ng/mL. For the same molecule, the MRT [1] was 17 ± 9.3 h, the Tmax [1] was 10.7 ± 0.6 h and the AUC (RGE + LAB group, RGE plus LAB (1 billion CFU/2 g) once daily oral 14 days) was 57.1 ± 22 ng·h/mL. It also gave a Cmax (RGE + LAB group, oral 14 days) of 13.9 ± 12.8 ng/mL, an MRT (RGE + LAB group, oral 14 days) of 10.2 ± 1.6 h and a Tmax (RGE + LAB group, oral 14 days) of 10.6 ± 1.8 h. The AUC (RGE group, RGE once daily oral 14 days (104.1 mg total ginsenosides/day)) was 21.3 ± 10.1 ng·h/mL.
